The data set is described as follows: Human HepG2 cell viability assay in 384 well format. It is filed as toxicity, cell-based. Also on record: dose 125 nL, time 70.5 hour; concentration not given beside the values. The following applies: HepG2 cells, read-out: Inhibition.
Regarding `CCc1nnc(CN2CCN(c3cccc(OC)c3)C(=O)C2)o1`, the cytotoxicity at 70.5 h was 12.1%. Then `CCC(C)NC(=O)c1cccc(CNC(=O)CC(F)(F)F)c1` (stereo not given), with -6.23%. The same measure for `O=C(c1ccc2[nH]cnc2c1)N1CCC(COc2ccccn2)CC1`: -5.85%; for `O=C(NCC1(O)CCSC1)c1ccoc1` (stereo not given): -5.15%. The same measure for `CCC1c2ccsc2CCN1C(=O)NCc1cccnc1OC` (stereo not given): -11.2%; for `Cc1nc(N[C@H]2COC[C@@H]2N2CCCC2)c2cnn(C)c2n1`: -8.31%. With `CN(Cc1nnc(C2CC2)n1C)C1CCN(CCc2ccccc2)C1` (stereo not given), the cytotoxicity at 70.5 h is -3.03%. Then `O=C(NC1CC1)[C@H]1CC[C@@H]2[C@@H](CCN2Cc2ccsc2)O1`, with -10.2%; and `CCc1noc(CNc2cc3c(cc2Cl)OCCO3)n1`, with 15.1%; and `CC(C)(CO)CNC(=O)c1ccnn1-c1ccc2ccccn12`, with -2.1%. Then `Cc1nn(C)c2c(N3CCN(C(=O)C4CCCCC4)CC3)ncnc12`, with 14.6%. The same measure for `Cc1cc(C2CCC2)nc(N(C)Cc2ncccc2C)n1`: 2.14%; for `CCC(C)NS(=O)(=O)Cc1cccc(NC(=O)C2=CCCC2)c1` (stereo not given): -4.4%.

For the compound `CCCS(=O)(=O)N1Cc2nccn2CC(CN(C)C)C1` (stereo not given), the cytotoxicity at 70.5 h was -10.3%.

As to `CCn1cnnc1CNC(=O)NC(c1cccs1)C1CCCC1` (stereo not given), the cytotoxicity at 70.5 h is 19.6%.

For the compound `CCOCC1CN(C(=O)c2cccs2)Cc2cnn(CC3CC3)c21` (stereo not given), the cytotoxicity at 70.5 h is -6.77%.

Take `COc1ccnc(N2CCN(C(=O)Cc3ccsc3)CC2)n1`: the cytotoxicity at 70.5 h was -8.71%. Then `O=c1cc(-c2cccnc2)nc(-c2ccc(CN3CC[C@@H](O)C3)cc2)[nH]1`, with 12.1%; and `O=c1cc(Cn2ccnc2)nc2n1CCCN(Cc1ccco1)C2`, with -5.53%; and `Cc1nc(C)n(C2CCCN(C(=O)CCCn3ccnc3)C2)n1` (stereo not given), with 4.28%. The same measure for `COc1ccccc1C(=O)NS(=O)(=O)c1cncc(Br)c1`: 9.9%; for `N#Cc1cc(F)ccc1NCC1CCN(S(=O)(=O)C(F)F)CC1`: -14.3%. Then `COCCN1CCc2cc(C(=O)NC(C)C)c(NCC3CC3)nc2CC1`, with -0.245%; and `CN1CCc2[nH]nc(C(=O)N3CCC4(CCCO4)CC3)c2C1`, with -0.824%; and `CCn1cc2c(n1)CN(Cc1ccc(C)o1)CC2COCC1CC1` (stereo not given), with -5.09%. With `Cc1n[nH]cc1CNCc1ccnc(OCC(F)(F)F)c1`, the cytotoxicity at 70.5 h was -7.14%.

In the case of `Cc1cc(N2CCC(Cc3ccccc3)CC2)ncn1`, the cytotoxicity at 70.5 h was -11.5%. On to `COCc1noc(-c2ccc(N(C)Cc3nccs3)nc2)n1`, for which the cytotoxicity at 70.5 h is -6.18%. Then `OCCOCCN1CCCC1c1nc2cc(F)ccc2[nH]1` (stereo not given), with 12%. The same measure for `Cc1ccc(-c2nc(CCNC(=O)CCN3CCOC3=O)co2)cc1`: -2.58%; for `Cc1cc(N(C)C)nc(NC2CCc3nc(C)nn3C2)n1` (stereo not given): 6.17%. The same measure for `C[C@H]1C[C@H]2CN(C(=O)c3ccncn3)CC[C@H]2O1`: -0.543%; for `CCC(O)(CNCc1cc[nH]n1)c1ccc(Br)cc1` (stereo not given): 6.78%; for `CCN(C)S(=O)(=O)NCC1(c2cccc(Br)c2)CC1`: -1.33%. As to `O=C(c1ccsc1)N1CC(c2nc(-c3ccc[nH]c3=O)no2)C1`, the cytotoxicity at 70.5 h was 12.8%.

With `CNc1cncc(C2CCCN(S(C)(=O)=O)C2)n1` (stereo not given), the cytotoxicity at 70.5 h amounted to 0.632%. The same measure for `Cc1ccc(C)c(OCc2cc(C(=O)N(C)CC(O)CO)no2)c1` (stereo not given): -4.59%; for `Cc1ccc(N2N=C(C(=O)NCC3CC3)S(=O)(=O)c3cccnc32)cc1`: -8.14%; for `c1coc(CN2CCO[C@H]3[C@H](OCC4CC4)CC[C@@H]32)c1`: -10.8%.

In the case of `COCc1noc(CN2CC(Cc3ccccc3)CC2=O)n1` (stereo not given), the cytotoxicity at 70.5 h was -20.6%.

As for `Cc1csc(C(C)(C)NCCCS(C)(=O)=O)n1`, the cytotoxicity at 70.5 h was -2%. Then `COc1cccc(C2=CCN(CCN3CCOC3=O)CC2)c1`, with 11.1%; and `COCC(=O)N[C@H](C)c1c(-c2ccc(Cl)cc2)noc1C(=O)O`, with -2.23%.

With `Cc1ncc(CN2CCOC(c3ccc(-c4ccccc4F)cn3)C2)s1` (stereo not given), the cytotoxicity at 70.5 h was found to be 49.2%.

Turning to `Cc1ccc(C2CN(CCCS(=O)(=O)C(C)C)CCO2)c(C)c1` (stereo not given), the cytotoxicity at 70.5 h is -2.16%.

As to `COc1ccc(CN2C[C@@H](F)[C@@H](OCc3nc4ccccc4[nH]3)C2)cn1`, the cytotoxicity at 70.5 h was -2.98%. Then `CC(=O)N1CCc2c(nc(N(C)C)nc2N(C)CCCC2CCCO2)C1` (stereo not given), with 10.7%; and `Cc1cccc2c1nc(CCO)n2-c1ccc(NS(C)(=O)=O)nc1`, with -8.44%; and `Cc1cc(C)n(CC(=O)N2CCC(c3nc(C)no3)CC2)n1`, with 2.07%. On to `COc1cccc(C(=O)N2CCN(CC(O)c3ccccc3)CC2)c1` (stereo not given), for which the cytotoxicity at 70.5 h is -9.4%.

Consider `Cc1noc(C(C)C)c1C(=O)NCc1cccnc1`, for which the cytotoxicity at 70.5 h was -16.6%.

For the compound `CCn1nc(C)c(CNC(=O)c2nnc3ccc(OC)cc3n2)c1C`, the cytotoxicity at 70.5 h is -3.67%. Then `O=C(c1cnccn1)N1CCOC2(CCN(Cc3ccsc3)CC2)C1`, with 4.24%; and `NCC(c1ccccc1)N1CCc2sccc2C1` (stereo not given), with 5.18%; and `CC(=O)N1CCC(c2ccnc(Nc3cc(C(F)(F)F)ccn3)n2)C1` (stereo not given), with 19.8%. Then `CCc1nc(CN(C)C2CCN(CCC(=O)N3CCCCC3)C2)no1` (stereo not given), with 0.593%.

For the compound `O=C(O)c1cc(S(=O)(=O)Nc2ccc(F)cc2F)cc2c1OCCO2`, the cytotoxicity at 70.5 h is -2.86%. The same measure for `CC1COc2ccccc2N1C(=O)c1ccnc(-n2cncn2)c1` (stereo not given): 9.86%; for `Cc1cc(C(=O)N2CCCC(N3CCNC3=O)C2)nn1C(C)(C)C` (stereo not given): -0.73%; for `O=C1CCC2(CCCN(C(=O)c3ccc[nH]3)C2)CN1Cc1cccnc1` (stereo not given): -3.97%. Then `CCn1ncc2c1CN(C(=O)c1ccc3c(c1)OCO3)CC2COC` (stereo not given), with -1.24%; and `CCNC(=O)C1CCN(Cn2nc(-c3ccc(F)cc3)oc2=O)CC1`, with -13.2%. The same measure for `CCOCC(=O)Nc1ncn(Cc2cccc(Br)c2)n1`: 17.2%. For `COCCn1cc(C(=O)Nc2nc3c(s2)CCC3)c2ccccc21`, the cytotoxicity at 70.5 h was 37%. For `COc1ccccc1C(=O)N(Cc1nc(C)cs1)CC1CCCO1` (stereo not given), the cytotoxicity at 70.5 h was found to be 22.1%.

In the case of `CC(=O)NCCNC(=O)c1sc(-c2ccc(Cl)cc2)nc1C`, the cytotoxicity at 70.5 h was -4.15%. The same measure for `CC(c1ccc(F)c(F)c1)N(C)CCS(=O)(=O)CCC(N)=O` (stereo not given): -9.48%.

Turning to `O=S(=O)(CC1CCOCC1)NCc1ccnc(O)c1`, the cytotoxicity at 70.5 h is 10.4%. The same measure for `Cc1cc(CN(C)C(=O)C2CCCN(C(=O)c3cccs3)C2)no1` (stereo not given): -10.3%; for `CCS(=O)(=O)CCN1CCCC1c1noc(C)n1` (stereo not given): -8.31%. The same measure for `CN(Cc1ccco1)C(=O)CN1CCN(C)c2ccccc2C1`: -3%; for `N#Cc1cccc(C(=O)N2CCC(Nc3cccnn3)CC2)c1`: -19.9%.

With `COc1cccc(N2CCN(CCC(=O)NC3CCCCC3)CC2)c1`, the cytotoxicity at 70.5 h is 16.7%. The same measure for `CCOc1ccc(C(=O)N2CCCC2Cn2cc(C)cn2)cn1` (stereo not given): -5.61%.

As for `COC(=O)c1ccc(N2CCN(CC(=O)NC(N)=O)C(C)C2)cc1` (stereo not given), the cytotoxicity at 70.5 h was -3.82%. Then `CCCc1nnsc1C(=O)N1CCCC1(C)C(=O)N1CCOCC1` (stereo not given), with -9.09%; and `c1cc(CN2Cc3nccn3CC(Cn3cncn3)C2)ccn1` (stereo not given), with 3.67%. On to `O=C(c1cnccn1)N1CCN(Cc2cscn2)CC1`, for which the cytotoxicity at 70.5 h was determined as 31.3%.

Take `O=C(c1ccc(C2CCCO2)s1)N1CCOCC1` (stereo not given): the cytotoxicity at 70.5 h is -5.89%. Take `Cn1ncc2c1NC(=O)CC2c1cc2c(cc1Cl)OCO2` (stereo not given): the cytotoxicity at 70.5 h was 17.7%. Then `Cc1cc(C(=O)N2CCCC(n3nc(C)cc3C)C2)on1` (stereo not given), with -10.1%. The same measure for `O=C(NCc1nnc2n1CCC2)c1cn(-c2cccc(Br)c2)nn1`: -6.53%. Then `COC(=O)C1CCN(C(=O)c2ccc(C)c(NS(C)(=O)=O)c2)CC1`, with -8.87%; and `CC(C)CNc1nc2c(cc1C(=O)NCC1CC1)CCNCC2`, with 24.9%; and `O=C1CCC(=O)N1c1nn(Cc2ccccc2)cc1Cl`, with 20.6%. For the compound `CCOc1ccc(N(CC(=O)c2ccccc2)C2=NCCCCC2)cc1`, the cytotoxicity at 70.5 h was -9.89%.

`CC(C)CN(CC(O)c1ccccc1)C(=O)NC(C)C` (stereo not given): the cytotoxicity at 70.5 h was -4.36%.

Consider `Clc1cnccc1N1CCCC2(CCCOC2)C1` (stereo not given), for which the cytotoxicity at 70.5 h was 1.82%. Then `CCOCC(=O)N1C[C@H]2CC[C@@H]1CN(C(=O)c1ccncc1)C2`, with -1.67%; and `CC(C)(CNC(=O)CSc1nnnn1C1CC1)c1ccccc1F`, with -7.67%.

On to `Cc1cccc(NC(=O)[C@@H]2CCCN2Cc2ccccc2C#N)n1`, for which the cytotoxicity at 70.5 h was -10.3%. Then `CC(C)N1CC2(CCCN(c3ccnc4ccccc34)C2)CCC1=O` (stereo not given), with -0.494%; and `Clc1cccc(C(NCc2ncc[nH]2)c2ccccn2)c1` (stereo not given), with 1.18%. For `Nc1nc(C2CCN(C(=O)c3cnco3)CC2)cs1`, the cytotoxicity at 70.5 h is -5.18%. On to `CC(C)CNC(=O)c1nc2c(s1)CCN(C(=O)c1ccc(Cl)cc1)CC2`, for which the cytotoxicity at 70.5 h is -3.22%. Then `CN(C)C(=O)CN1CC=C(c2cnn(Cc3ccccc3)c2)CC1`, with -15.3%. Consider `CCOC(=O)N1CCCC2(CCCNC2)C1` (stereo not given), for which the cytotoxicity at 70.5 h was -1.34%. The same measure for `Cc1ccsc1CN(CCN(C)C)C(=O)c1cc2ccccc2[nH]1`: 4.92%; for `CC(C)c1nc(CN(C)C(=O)CCS(=O)(=O)c2ccccc2)no1`: -8.68%; for `COc1ccc(S(=O)(=O)N2CCc3ccc(F)cc32)cc1C(=O)O`: 1.61%.

The record behind these values is ChEMBL document CHEMBL3507680, “University of Dundee, Gates Library screen for HepG2 cell viability”.
